Measured values published in PubChem BioAssay (NCI).
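Step 1: Grow cells in 96-well plates. Step 2: Expose to compound for 48 hours at 5 concentrations. Step 3: Interpolate endpoints linearly; if unreached, use highest concentration. The concentration for full growth arrest is given as TGI.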

Legend:
Experiment in all cases: NCI anticancer screen, dose series, 48 h
786-0 renal = system: 786-0 renal
A498 renal = system: A498 renal
A549 NSCLC = system: A549 NSCLC
ACHN renal = system: ACHN renal
CAKI-1 renal = system: CAKI-1 renal
CCRF-CEM leukemia = system: CCRF-CEM leukemia
COLO 205 colon = system: COLO 205 colon
DMS 114 small cell lung = system: DMS 114 small cell lung
DMS 273 small cell lung = system: DMS 273 small cell lung
EKVX NSCLC = system: EKVX NSCLC
HCT-116 colon = system: HCT-116 colon
HCT-15 colon = system: HCT-15 colon
HL-60(TB) leukemia = system: HL-60(TB) leukemia
HOP-62 NSCLC = system: HOP-62 NSCLC
HT29 colon = system: HT29 colon
K-562 leukemia = system: K-562 leukemia
KM12 colon = system: KM12 colon
KM20L2 colon = system: KM20L2 colon
LOX IMVI melanoma = system: LOX IMVI melanoma
LXFL 529 NSCLC = system: LXFL 529 NSCLC
M14 melanoma = system: M14 melanoma
M19-MEL melanoma = system: M19-MEL melanoma
MALME-3M melanoma = system: MALME-3M melanoma
MOLT-4 leukemia = system: MOLT-4 leukemia
NCI-H226 lung = system: NCI-H226 lung
NCI-H23 lung = system: NCI-H23 lung
NCI-H522 lung = system: NCI-H522 lung
OVCAR-3 ovarian = system: OVCAR-3 ovarian
OVCAR-4 ovarian = system: OVCAR-4 ovarian
OVCAR-5 ovarian = system: OVCAR-5 ovarian
OVCAR-8 ovarian = system: OVCAR-8 ovarian
RPMI-8226 leukemia = system: RPMI-8226 leukemia
RXF 393 renal = system: RXF 393 renal
RXF-631 renal = system: RXF-631 renal
SF-268 CNS = system: SF-268 CNS
SF-295 CNS = system: SF-295 CNS
SF-539 CNS = system: SF-539 CNS
SK-MEL-2 melanoma = system: SK-MEL-2 melanoma
SK-MEL-28 melanoma = system: SK-MEL-28 melanoma
SK-MEL-5 melanoma = system: SK-MEL-5 melanoma
SK-OV-3 ovarian = system: SK-OV-3 ovarian
SN12C renal = system: SN12C renal
SNB-19 CNS = system: SNB-19 CNS
SNB-75 CNS = system: SNB-75 CNS
SNB-78 CNS = system: SNB-78 CNS
SR leukemia = system: SR leukemia
SW-620 colon = system: SW-620 colon
U251 CNS = system: U251 CNS
UACC-257 melanoma = system: UACC-257 melanoma
UACC-62 melanoma = system: UACC-62 melanoma
UO-31 renal = system: UO-31 renal
XF 498 CNS = system: XF 498 CNS
DLD-1 colon = system: DLD-1 colon
HCC-2998 colon = system: HCC-2998 colon
HOP-18 NSCLC = system: HOP-18 NSCLC
HOP-92 NSCLC = system: HOP-92 NSCLC
IGROV1 ovarian = system: IGROV1 ovarian
NCI-H460 lung = system: NCI-H460 lung
TK-10 renal = system: TK-10 renal

Measured: TGI

CC[C@H]1[C@@H](C)C=C[C@@H](C)N1S(=O)(=O)c1ccc(C)cc1
27.5 µM: UO-31 renal
42.4 µM: XF 498 CNS
> 100 µM: 786-0 renal | A498 renal | A549 NSCLC | ACHN renal | CAKI-1 renal | CCRF-CEM leukemia | COLO 205 colon | DMS 273 small cell lung | EKVX NSCLC | HCT-116 colon | HCT-15 colon | HOP-62 NSCLC | HT29 colon | K-562 leukemia | KM12 colon | KM20L2 colon | LOX IMVI melanoma | LXFL 529 NSCLC | M14 melanoma | M19-MEL melanoma | MALME-3M melanoma | MOLT-4 leukemia | NCI-H226 lung | NCI-H23 lung | NCI-H522 lung | OVCAR-3 ovarian | OVCAR-4 ovarian | OVCAR-5 ovarian | OVCAR-8 ovarian | RPMI-8226 leukemia | RXF 393 renal | SF-268 CNS | SF-295 CNS | SF-539 CNS | SK-MEL-28 melanoma | SK-MEL-5 melanoma | SK-OV-3 ovarian | SN12C renal | SNB-75 CNS | SNB-78 CNS | SR leukemia | SW-620 colon | U251 CNS | UACC-257 melanoma | UACC-62 melanoma
52 µM: HL-60(TB) leukemia
35.3 µM: SNB-19 CNS
34.9 µM: DMS 114 small cell lung
30.4 µM: RXF-631 renal
52.9 µM: SK-MEL-2 melanoma

O=[N+]([O-])c1cccc(C=NC23CC4CC(CC(C4)C2)C3)c1
> 100 µM: 786-0 renal | A498 renal | A549 NSCLC | ACHN renal | CAKI-1 renal | CCRF-CEM leukemia | COLO 205 colon | DLD-1 colon | DMS 114 small cell lung | DMS 273 small cell lung | EKVX NSCLC | HCC-2998 colon | HCT-116 colon | HCT-15 colon | HOP-18 NSCLC | HOP-62 NSCLC | HOP-92 NSCLC | HT29 colon | IGROV1 ovarian | K-562 leukemia | KM12 colon | KM20L2 colon | LOX IMVI melanoma | LXFL 529 NSCLC | M14 melanoma | M19-MEL melanoma | MALME-3M melanoma | MOLT-4 leukemia | NCI-H226 lung | NCI-H23 lung | NCI-H460 lung | NCI-H522 lung | OVCAR-3 ovarian | OVCAR-4 ovarian | OVCAR-5 ovarian | OVCAR-8 ovarian | RXF 393 renal | SF-268 CNS | SF-295 CNS | SF-539 CNS | SK-MEL-2 melanoma | SK-MEL-28 melanoma | SK-MEL-5 melanoma | SK-OV-3 ovarian | SN12C renal | SNB-19 CNS | SNB-75 CNS | SNB-78 CNS | SW-620 colon | TK-10 renal | U251 CNS | UACC-257 melanoma | UACC-62 melanoma | UO-31 renal | XF 498 CNS
65.6 µM: HL-60(TB) leukemia

Cc1cc2c(cc1C)[n+](=O)c(C(=O)CC(=O)C(=O)Nc1ccccc1C)c(C)n2[O-]
> 100 µM: 786-0 renal | A498 renal | A549 NSCLC | ACHN renal | CAKI-1 renal | CCRF-CEM leukemia | COLO 205 colon | DMS 273 small cell lung | EKVX NSCLC | HCC-2998 colon | HCT-116 colon | HCT-15 colon | HL-60(TB) leukemia | HOP-18 NSCLC | HOP-62 NSCLC | HOP-92 NSCLC | HT29 colon | IGROV1 ovarian | K-562 leukemia | KM12 colon | KM20L2 colon | LOX IMVI melanoma | LXFL 529 NSCLC | M14 melanoma | M19-MEL melanoma | MALME-3M melanoma | MOLT-4 leukemia | NCI-H226 lung | NCI-H23 lung | NCI-H460 lung | NCI-H522 lung | OVCAR-3 ovarian | OVCAR-4 ovarian | OVCAR-5 ovarian | OVCAR-8 ovarian | RPMI-8226 leukemia | RXF 393 renal | RXF-631 renal | SF-268 CNS | SF-295 CNS | SF-539 CNS | SK-MEL-2 melanoma | SK-MEL-28 melanoma | SK-MEL-5 melanoma | SK-OV-3 ovarian | SN12C renal | SNB-19 CNS | SNB-75 CNS | SNB-78 CNS | SR leukemia | SW-620 colon | TK-10 renal | U251 CNS | UACC-257 melanoma | UACC-62 melanoma | UO-31 renal

CCOC(=O)c1sc(Nc2cc(Cl)ccc2Cl)nc1C
> 100 µM: 786-0 renal | A498 renal | A549 NSCLC | ACHN renal | COLO 205 colon | DLD-1 colon | DMS 114 small cell lung | EKVX NSCLC | HCC-2998 colon | HCT-116 colon | HCT-15 colon | HL-60(TB) leukemia | HOP-18 NSCLC | HOP-62 NSCLC | HT29 colon | IGROV1 ovarian | K-562 leukemia | KM12 colon | KM20L2 colon | LOX IMVI melanoma | LXFL 529 NSCLC | M19-MEL melanoma | MALME-3M melanoma | MOLT-4 leukemia | NCI-H226 lung | NCI-H23 lung | NCI-H460 lung | NCI-H522 lung | OVCAR-3 ovarian | OVCAR-4 ovarian | OVCAR-5 ovarian | OVCAR-8 ovarian | RPMI-8226 leukemia | RXF 393 renal | RXF-631 renal | SF-268 CNS | SF-295 CNS | SF-539 CNS | SK-MEL-2 melanoma | SK-MEL-28 melanoma | SN12C renal | SNB-19 CNS | SNB-75 CNS | SNB-78 CNS | SR leukemia | SW-620 colon | TK-10 renal | U251 CNS | UACC-257 melanoma | UO-31 renal | XF 498 CNS
96.6 µM: HOP-92 NSCLC
